Results from paper PMC8625740, “Triterpenoid Saponins from the Cultivar “Green Elf” of Pittosporum tenuifolium” (Molecules, 2021).

Molecular target: T1, hTAS1R2 (TAS1R2/TAS1R3 sweet taste receptor) (Homo sapiens, UniProt Q8TE23)
T1 construct: with hTAS1R3 (TAS1R3)
T1 sequence (Q8TE23 20-839): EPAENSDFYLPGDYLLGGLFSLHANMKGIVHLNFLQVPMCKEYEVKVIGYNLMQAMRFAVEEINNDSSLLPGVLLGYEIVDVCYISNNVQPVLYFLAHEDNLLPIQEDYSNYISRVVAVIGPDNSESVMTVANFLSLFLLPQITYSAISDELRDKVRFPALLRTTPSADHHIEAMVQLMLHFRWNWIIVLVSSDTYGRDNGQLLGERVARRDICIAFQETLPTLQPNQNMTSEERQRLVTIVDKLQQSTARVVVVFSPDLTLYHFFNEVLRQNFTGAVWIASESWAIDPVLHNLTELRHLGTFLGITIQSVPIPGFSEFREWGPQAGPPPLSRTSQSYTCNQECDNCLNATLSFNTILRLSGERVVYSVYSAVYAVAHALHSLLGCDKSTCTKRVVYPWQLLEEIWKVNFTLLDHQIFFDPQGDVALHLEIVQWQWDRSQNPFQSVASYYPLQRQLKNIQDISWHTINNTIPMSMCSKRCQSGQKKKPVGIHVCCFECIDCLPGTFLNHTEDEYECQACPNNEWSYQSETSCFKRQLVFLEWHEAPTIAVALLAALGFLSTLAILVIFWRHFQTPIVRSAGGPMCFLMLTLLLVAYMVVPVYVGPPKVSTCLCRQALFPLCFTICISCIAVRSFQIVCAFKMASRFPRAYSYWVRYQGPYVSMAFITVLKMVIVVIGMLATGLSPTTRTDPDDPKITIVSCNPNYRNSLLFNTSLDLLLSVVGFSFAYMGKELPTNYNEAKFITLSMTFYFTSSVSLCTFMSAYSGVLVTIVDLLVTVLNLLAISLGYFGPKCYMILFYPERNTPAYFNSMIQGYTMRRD
T1 sequence (Q7RTX0 21-852 partner): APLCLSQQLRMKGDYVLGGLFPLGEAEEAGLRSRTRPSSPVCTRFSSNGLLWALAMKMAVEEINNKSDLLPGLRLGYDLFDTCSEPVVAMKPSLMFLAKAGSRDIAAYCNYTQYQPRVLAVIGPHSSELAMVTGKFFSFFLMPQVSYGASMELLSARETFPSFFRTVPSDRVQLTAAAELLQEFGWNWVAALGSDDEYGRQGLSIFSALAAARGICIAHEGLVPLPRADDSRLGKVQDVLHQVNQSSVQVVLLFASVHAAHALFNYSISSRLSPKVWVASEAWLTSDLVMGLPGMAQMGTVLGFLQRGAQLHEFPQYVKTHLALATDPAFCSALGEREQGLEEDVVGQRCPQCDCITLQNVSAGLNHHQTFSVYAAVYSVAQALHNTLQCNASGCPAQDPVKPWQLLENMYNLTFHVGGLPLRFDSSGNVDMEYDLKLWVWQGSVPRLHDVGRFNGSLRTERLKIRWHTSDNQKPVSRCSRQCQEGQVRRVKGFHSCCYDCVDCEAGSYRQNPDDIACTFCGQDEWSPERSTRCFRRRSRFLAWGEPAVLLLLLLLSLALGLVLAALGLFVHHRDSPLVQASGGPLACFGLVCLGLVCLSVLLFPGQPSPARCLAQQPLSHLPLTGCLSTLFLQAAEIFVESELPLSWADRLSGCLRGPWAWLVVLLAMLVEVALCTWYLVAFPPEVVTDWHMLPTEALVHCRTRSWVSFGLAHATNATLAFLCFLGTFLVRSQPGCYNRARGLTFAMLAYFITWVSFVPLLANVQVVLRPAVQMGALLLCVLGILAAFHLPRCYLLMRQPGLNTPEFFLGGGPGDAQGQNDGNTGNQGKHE
Experiment: calcium mobilization (GCaMP5G, FLIPR) in HEK293T-Gα[…]gust44 cells transfected with hTAS1R2 and hTAS1R3, mock-subtracted
Assay type: cell-based

## OC[C@H]1O[C@H](O[C@]2(CCl)O[C@H](CCl)[C@@H](O)[C@@H]2O)[C@H](O)[C@@H](O)[C@H]1Cl [sucralose]
  EC50: 52 ± 7 µM
